# How the values were obtained:
# Assay type in all cases: biochemical
# Met-1 = target: T1, Met-1 (Homo sapiens, UniProt P08581); test: Kinase inhibition, 33P transfer to plate-bound substrate: Met-1
# T1 construct: Kinases are expressed as either kinase domains or full-length constructs; made in house
# Excerpt: (§1) The inhibitor compounds described herein are screened in the following manner. Kinases suitable for use in the following protocol to determine kinase activity of the compounds described herein include, but are not limited to: Lck, Lyn, Src, Fyn, Syk, Zap-70, Itk, Tec, Btk, EGFR, ErbB2, Kdr, Flt-1, Flt-3, Tek, c-Met, InsR, and AKT.
# (§2) Kinases are expressed as either kinase domains or full-length constructs fused to glutathione S-transferase (GST) or polyHistidine tagged fusion proteins in either E. coli or Baculovirus-High Five expression systems. They are purified to near homogeneity by affinity chromatography essentially as previously described (Lehr et al., 1996; Gish et al., 1995). In some instances, kinases are co-expressed or mixed with purified or partially purified regulatory polypeptides prior to measurement of activity.
# (§3) Kinase activity and inhibition are measured essentially by established protocols (Braunwalder et al., 1996). Briefly, The transfer of ^33PO4 from ATP to the synthetic substrates poly(Glu, Tyr) 4:1 or poly(Arg, Ser) 3:1 attached to the bioactive surface of microtiter plates serves as the basis to evaluate enzyme activity. After an incubation period, the amount of phosphate transferred is measured by first washing the plate with 0.5% phosphoric acid, adding liquid scintillant, and then counting in a liquid scintillation detector. The IC50 is determined by the concentration of compound that causes a 50% reduction in the amount of ^33P incorporated onto the substrate bound to the plate.
# Fyn-1 = target: T2, Fyn-1 (Homo sapiens, UniProt P06241); test: Kinase inhibition, 33P transfer to plate-bound substrate: Fyn-1
# T2 construct: Kinases are expressed as either kinase domains or full-length constructs; made in house
# Excerpt: as §1, §2, §3
# Flt1-1 = target: T3, Flt1-1 (Homo sapiens, UniProt P17948); test: Kinase inhibition, 33P transfer to plate-bound substrate: Flt1-1
# T3 construct: Kinases are expressed as either kinase domains or full-length constructs; made in house
# Excerpt: as §1, §2, §3
# Hck-1 = target: T4, Hck-1 (Homo sapiens, UniProt P08631); test: Kinase inhibition, 33P transfer to plate-bound substrate: Hck-1
# T4 construct: Kinases are expressed as either kinase domains or full-length constructs; made in house
# Excerpt: as §1, §2
# as §3, with “The IC50 is determined by the concentration of compound that causes a 50% reduction in the amount of ^33P incorporated onto the substrate bound to the plate.” left out
# PDGFRB = target: T5, PDGFRB (Homo sapiens, UniProt P09619); test: Kinase inhibition, 33P transfer to plate-bound substrate: PDGFRB
# T5 construct: Kinases are expressed as either kinase domains or full-length constructs; made in house
# Excerpt: as §1, §2, §3
# Tek-1 = target: T6, Tek-1 (Homo sapiens, UniProt Q02763); test: Kinase inhibition, 33P transfer to plate-bound substrate: Tek-1
# T6 construct: Kinases are expressed as either kinase domains or full-length constructs; made in house
# Excerpt: as §1, §2, §3
# Src-1 = target: T7, Src-1 (Homo sapiens, UniProt P12931); test: Kinase inhibition, 33P transfer to plate-bound substrate: Src-1
# T7 construct: Kinases are expressed as either kinase domains or full-length constructs; made in house
# Excerpt: as §1, §2, §3
# Zap-1 = target: T8, Zap-1 (Homo sapiens, UniProt P43403); test: Kinase inhibition, 33P transfer to plate-bound substrate: Zap-1
# T8 construct: Kinases are expressed as either kinase domains or full-length constructs; made in house
# T8 sequence (P43403 1-619): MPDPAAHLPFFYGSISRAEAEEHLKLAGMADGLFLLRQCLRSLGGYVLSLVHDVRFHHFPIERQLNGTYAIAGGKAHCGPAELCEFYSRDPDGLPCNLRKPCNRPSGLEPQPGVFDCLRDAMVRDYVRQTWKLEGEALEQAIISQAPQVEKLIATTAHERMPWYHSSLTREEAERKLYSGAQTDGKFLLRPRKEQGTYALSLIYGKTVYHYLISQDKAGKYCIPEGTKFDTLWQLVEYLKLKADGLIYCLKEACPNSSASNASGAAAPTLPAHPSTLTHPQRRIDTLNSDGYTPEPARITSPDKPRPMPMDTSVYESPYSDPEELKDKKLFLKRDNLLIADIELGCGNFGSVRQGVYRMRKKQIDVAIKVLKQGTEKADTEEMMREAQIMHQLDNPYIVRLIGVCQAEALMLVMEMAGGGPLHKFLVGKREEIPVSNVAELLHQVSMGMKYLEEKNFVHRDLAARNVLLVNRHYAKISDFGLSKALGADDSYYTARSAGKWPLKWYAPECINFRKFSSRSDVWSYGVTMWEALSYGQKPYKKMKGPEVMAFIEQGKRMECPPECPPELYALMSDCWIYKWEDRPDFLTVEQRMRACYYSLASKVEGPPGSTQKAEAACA
# Excerpt: as §1, §2, §3
# KDR-1 = target: T9, KDR-1 (Homo sapiens, UniProt P35968); test: Kinase inhibition, 33P transfer to plate-bound substrate: KDR-1
# T9 construct: Kinases are expressed as either kinase domains or full-length constructs; made in house
# T9 sequence (P35968 20-1356): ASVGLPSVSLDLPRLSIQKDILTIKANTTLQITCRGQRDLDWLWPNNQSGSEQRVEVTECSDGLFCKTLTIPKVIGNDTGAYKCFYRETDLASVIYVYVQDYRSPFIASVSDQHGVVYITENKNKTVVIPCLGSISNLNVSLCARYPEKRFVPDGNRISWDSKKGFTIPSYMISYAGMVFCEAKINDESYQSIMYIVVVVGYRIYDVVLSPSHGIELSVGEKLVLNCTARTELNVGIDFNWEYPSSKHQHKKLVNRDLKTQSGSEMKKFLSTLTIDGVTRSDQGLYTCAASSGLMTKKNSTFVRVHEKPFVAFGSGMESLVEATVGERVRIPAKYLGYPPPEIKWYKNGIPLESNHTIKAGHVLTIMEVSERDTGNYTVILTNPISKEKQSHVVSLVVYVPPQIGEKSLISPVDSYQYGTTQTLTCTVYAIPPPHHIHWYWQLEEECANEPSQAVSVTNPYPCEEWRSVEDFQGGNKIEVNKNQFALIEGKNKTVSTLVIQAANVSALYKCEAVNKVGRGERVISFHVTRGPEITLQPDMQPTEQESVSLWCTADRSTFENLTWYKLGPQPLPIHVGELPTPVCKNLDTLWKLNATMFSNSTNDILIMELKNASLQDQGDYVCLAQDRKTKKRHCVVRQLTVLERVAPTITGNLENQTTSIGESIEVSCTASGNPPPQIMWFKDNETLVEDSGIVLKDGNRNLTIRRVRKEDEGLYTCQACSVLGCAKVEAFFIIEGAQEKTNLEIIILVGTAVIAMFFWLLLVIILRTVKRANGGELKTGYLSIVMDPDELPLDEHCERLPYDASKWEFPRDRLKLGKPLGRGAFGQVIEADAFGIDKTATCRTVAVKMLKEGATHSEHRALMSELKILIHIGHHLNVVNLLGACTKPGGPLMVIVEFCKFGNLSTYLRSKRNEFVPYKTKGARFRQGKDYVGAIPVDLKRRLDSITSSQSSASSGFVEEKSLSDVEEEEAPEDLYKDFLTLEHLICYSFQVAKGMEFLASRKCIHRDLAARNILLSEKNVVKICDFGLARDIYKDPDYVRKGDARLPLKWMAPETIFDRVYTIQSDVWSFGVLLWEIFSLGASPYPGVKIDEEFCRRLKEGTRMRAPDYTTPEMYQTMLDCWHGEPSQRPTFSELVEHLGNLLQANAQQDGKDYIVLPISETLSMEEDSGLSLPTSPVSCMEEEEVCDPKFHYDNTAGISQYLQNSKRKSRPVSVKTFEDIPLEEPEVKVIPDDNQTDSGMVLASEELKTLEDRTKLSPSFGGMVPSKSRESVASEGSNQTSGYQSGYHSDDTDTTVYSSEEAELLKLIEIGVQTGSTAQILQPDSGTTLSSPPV
# Excerpt: as §1, §2, §3
# FGFR1-1 = target: T10, FGFR1-1 (Homo sapiens, UniProt P11362); test: Kinase inhibition, 33P transfer to plate-bound substrate: FGFR1-1
# T10 construct: Kinases are expressed as either kinase domains or full-length constructs; made in house
# T10 sequence (P11362 22-822): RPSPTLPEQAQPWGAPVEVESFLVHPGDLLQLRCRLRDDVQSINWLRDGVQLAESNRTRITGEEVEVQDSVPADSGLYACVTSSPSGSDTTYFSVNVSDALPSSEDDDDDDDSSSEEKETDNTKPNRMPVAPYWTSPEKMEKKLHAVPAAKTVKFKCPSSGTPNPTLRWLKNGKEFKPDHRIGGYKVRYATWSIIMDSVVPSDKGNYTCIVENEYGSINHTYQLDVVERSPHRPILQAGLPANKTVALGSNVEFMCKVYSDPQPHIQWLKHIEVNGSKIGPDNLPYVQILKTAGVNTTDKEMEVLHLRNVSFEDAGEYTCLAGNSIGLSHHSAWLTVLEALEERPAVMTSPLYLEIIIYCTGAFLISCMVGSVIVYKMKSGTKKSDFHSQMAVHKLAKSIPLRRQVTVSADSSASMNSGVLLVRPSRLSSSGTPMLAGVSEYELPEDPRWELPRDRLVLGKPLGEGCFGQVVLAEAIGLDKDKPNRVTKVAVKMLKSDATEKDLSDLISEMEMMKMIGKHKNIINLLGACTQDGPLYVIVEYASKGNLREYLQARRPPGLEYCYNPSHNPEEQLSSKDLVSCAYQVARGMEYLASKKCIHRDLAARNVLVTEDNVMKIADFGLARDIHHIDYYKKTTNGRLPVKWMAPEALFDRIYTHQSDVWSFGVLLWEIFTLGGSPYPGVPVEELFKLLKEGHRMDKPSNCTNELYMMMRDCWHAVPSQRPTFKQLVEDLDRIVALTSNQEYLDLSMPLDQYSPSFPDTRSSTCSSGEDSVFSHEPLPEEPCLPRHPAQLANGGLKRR
# Excerpt: as §1, §2, §3
# Lck-1 = target: T11, Lck-1 (Homo sapiens, UniProt P06239); test: Kinase inhibition, 33P transfer to plate-bound substrate: Lck-1
# T11 construct: Kinases are expressed as either kinase domains or full-length constructs; made in house
# Excerpt: as §1, §2, §3
# InsR-1 = target: T12, InsR-1 (Homo sapiens, UniProt P06213); test: Kinase inhibition, 33P transfer to plate-bound substrate: InsR-1
# T12 construct: Kinases are expressed as either kinase domains or full-length constructs; made in house
# T12 sequence (P06213 28-1382): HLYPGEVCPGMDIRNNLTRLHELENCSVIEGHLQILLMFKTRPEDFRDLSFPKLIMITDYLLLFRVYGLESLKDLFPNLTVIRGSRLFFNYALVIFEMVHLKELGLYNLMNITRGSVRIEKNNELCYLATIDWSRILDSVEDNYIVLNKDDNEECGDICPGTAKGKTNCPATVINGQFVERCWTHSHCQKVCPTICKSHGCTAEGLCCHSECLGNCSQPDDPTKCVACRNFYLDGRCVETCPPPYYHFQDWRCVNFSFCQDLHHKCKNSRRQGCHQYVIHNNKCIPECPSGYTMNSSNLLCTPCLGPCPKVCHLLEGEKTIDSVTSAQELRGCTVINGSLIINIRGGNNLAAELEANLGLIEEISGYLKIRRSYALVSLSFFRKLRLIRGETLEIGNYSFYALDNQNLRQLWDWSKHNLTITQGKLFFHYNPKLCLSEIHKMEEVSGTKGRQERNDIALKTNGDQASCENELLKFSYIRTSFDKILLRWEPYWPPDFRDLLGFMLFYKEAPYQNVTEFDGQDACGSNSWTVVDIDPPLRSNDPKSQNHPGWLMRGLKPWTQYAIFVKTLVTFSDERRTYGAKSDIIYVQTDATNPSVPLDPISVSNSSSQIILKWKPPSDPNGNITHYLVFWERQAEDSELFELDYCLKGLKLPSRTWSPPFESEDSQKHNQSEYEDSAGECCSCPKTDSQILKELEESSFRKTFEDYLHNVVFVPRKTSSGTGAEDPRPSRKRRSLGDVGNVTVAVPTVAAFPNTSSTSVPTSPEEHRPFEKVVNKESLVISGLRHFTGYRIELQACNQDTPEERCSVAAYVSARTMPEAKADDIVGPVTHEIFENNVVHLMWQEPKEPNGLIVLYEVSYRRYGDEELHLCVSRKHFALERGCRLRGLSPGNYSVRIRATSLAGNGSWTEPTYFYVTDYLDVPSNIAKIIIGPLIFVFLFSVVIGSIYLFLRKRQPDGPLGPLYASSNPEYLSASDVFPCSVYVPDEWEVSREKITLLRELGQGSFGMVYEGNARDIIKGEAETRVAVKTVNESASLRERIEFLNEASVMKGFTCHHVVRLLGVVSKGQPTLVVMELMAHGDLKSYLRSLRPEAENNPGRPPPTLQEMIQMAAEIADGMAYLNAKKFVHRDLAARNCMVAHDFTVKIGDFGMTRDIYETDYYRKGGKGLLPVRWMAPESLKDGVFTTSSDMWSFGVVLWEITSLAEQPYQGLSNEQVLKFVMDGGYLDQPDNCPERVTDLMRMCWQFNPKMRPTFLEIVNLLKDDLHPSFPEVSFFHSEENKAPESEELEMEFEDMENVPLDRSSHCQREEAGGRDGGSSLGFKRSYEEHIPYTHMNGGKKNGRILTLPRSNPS
# Excerpt: as §1, §2, §3
# Lck-2 = target: T13, Lck-2 (Homo sapiens, UniProt P06239); test: Kinase inhibition, 33P transfer to plate-bound substrate: Lck-2
# T13 construct: Kinases are expressed as either kinase domains or full-length constructs; made in house
# Excerpt: as §1, §2, §3
# EGFR-1 = target: T14, EGFR-1 (Homo sapiens, UniProt P00533); test: Kinase inhibition, 33P transfer to plate-bound substrate: EGFR-1
# T14 construct: Kinases are expressed as either kinase domains or full-length constructs; made in house
# Excerpt: as §1, §2, §3
# ErbB2-1 = target: T15, ErbB2-1 (Homo sapiens, UniProt P04626); test: Kinase inhibition, 33P transfer to plate-bound substrate: ErbB2-1
# T15 construct: Kinases are expressed as either kinase domains or full-length constructs; made in house
# Excerpt: as §1, §2, §3
# Ret-1 = target: T16, Ret-1 (Homo sapiens, UniProt P07949); test: Kinase inhibition, 33P transfer to plate-bound substrate: Ret-1
# T16 construct: Kinases are expressed as either kinase domains or full-length constructs; made in house
# T16 sequence (P07949 29-1114): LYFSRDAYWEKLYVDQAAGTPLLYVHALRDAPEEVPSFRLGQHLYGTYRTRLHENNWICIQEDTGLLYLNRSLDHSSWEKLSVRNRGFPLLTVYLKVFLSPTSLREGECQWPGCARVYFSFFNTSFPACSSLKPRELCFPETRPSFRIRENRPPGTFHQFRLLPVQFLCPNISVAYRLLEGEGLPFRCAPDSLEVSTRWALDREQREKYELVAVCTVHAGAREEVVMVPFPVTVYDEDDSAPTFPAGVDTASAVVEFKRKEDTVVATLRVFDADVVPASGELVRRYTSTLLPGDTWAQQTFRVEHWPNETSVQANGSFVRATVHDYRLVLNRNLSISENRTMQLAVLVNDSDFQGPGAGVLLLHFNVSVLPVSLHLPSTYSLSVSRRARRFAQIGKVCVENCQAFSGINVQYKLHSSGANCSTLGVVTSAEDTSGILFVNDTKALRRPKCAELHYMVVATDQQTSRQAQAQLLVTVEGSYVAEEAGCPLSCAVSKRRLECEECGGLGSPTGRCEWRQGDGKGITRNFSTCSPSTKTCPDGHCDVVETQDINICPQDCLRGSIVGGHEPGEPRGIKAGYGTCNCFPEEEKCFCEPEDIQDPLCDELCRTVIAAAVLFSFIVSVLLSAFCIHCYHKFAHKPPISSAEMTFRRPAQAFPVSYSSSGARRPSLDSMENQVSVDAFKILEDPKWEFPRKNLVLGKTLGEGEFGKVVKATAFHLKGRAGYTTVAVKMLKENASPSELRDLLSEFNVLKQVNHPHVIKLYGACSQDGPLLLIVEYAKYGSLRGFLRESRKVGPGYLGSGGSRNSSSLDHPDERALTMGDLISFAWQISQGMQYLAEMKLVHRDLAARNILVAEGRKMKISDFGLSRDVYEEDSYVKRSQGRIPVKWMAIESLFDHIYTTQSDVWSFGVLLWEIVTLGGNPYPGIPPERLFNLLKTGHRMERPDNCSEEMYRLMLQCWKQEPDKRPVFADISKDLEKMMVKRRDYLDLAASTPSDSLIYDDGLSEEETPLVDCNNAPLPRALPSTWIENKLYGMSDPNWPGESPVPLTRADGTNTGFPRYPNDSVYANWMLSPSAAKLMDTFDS
# Excerpt: as §1, §2, §3
# IGFR-1 = target: T17, IGFR-1 (Homo sapiens, UniProt P08069); test: Kinase inhibition, 33P transfer to plate-bound substrate: IGFR-1
# T17 construct: Kinases are expressed as either kinase domains or full-length constructs; made in house
# Excerpt: as §1, §2, §3
# Akt3-1 = target: T18, Akt3-1 (Homo sapiens, UniProt Q9Y243); test: Kinase inhibition, 33P transfer to plate-bound substrate: Akt3-1
# T18 construct: Kinases are expressed as either kinase domains or full-length constructs; made in house
# Excerpt: as §1, §2, §3
# Lyn-1 = target: T19, Lyn-1 (Homo sapiens, UniProt P07948); test: Kinase inhibition, 33P transfer to plate-bound substrate: Lyn-1
# T19 construct: Kinases are expressed as either kinase domains or full-length constructs; made in house
# T19 sequence (P07948 whole entry, the tested form may be a part): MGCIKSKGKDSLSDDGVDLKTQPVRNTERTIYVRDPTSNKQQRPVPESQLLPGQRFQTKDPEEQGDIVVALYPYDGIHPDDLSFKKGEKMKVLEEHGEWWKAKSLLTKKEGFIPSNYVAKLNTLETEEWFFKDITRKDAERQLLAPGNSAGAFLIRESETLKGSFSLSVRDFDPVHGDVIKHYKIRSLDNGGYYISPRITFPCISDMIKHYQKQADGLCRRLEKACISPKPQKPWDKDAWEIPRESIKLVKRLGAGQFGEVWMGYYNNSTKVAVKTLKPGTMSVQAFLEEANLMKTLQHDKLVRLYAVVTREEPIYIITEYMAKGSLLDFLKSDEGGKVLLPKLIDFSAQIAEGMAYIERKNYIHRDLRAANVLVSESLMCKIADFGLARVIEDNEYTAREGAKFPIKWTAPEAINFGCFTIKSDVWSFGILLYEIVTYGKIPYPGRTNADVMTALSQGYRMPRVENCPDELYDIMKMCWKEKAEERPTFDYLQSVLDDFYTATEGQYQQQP
# Excerpt: as §1, §2, §3
# ErbB4-1 = target: T20, ErbB4-1 (Homo sapiens, UniProt Q15303); test: Kinase inhibition, 33P transfer to plate-bound substrate: ErbB4-1
# T20 construct: Kinases are expressed as either kinase domains or full-length constructs; made in house
# Excerpt: as §1, §2, §3
# Itk-1 = target: T21, Itk-1 (Homo sapiens, UniProt Q08881); test: Kinase inhibition, 33P transfer to plate-bound substrate: Itk-1
# T21 construct: Kinases are expressed as either kinase domains or full-length constructs; made in house
# T21 sequence (Q08881 1-620): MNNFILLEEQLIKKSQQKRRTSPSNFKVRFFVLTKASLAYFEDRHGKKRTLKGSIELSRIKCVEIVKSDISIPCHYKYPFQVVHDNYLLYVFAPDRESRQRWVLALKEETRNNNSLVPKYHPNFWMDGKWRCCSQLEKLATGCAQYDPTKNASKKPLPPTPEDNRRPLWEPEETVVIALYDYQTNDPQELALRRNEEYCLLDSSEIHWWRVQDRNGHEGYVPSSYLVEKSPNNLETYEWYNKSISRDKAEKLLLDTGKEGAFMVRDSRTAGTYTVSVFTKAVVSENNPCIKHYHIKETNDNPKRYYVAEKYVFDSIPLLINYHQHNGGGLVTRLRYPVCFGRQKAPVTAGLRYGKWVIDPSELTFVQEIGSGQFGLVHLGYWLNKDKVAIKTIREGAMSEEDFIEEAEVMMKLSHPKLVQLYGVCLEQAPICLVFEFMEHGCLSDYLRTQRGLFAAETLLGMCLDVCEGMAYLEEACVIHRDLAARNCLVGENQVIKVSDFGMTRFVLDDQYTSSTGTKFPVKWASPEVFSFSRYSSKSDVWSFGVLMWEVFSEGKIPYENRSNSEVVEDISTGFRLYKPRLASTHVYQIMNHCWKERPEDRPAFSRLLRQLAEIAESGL
# Excerpt: as §1, §2, §3
smiles,measurement,setting,value
COc1cc(Nc2nccc(-n3c(=O)[nH]c4ccccc43)n2)cc(OC)c1OC [Compound 3],IC50,Met-1,1.5 to 5 µM
same,IC50,Fyn-1,5 to 10 µM
same,IC50,Flt1-1,< 1.5 µM
same,IC50,Hck-1,≥ 10 µM
same,IC50,PDGFRB,< 1.5 µM
same,IC50,Tek-1,5 to 10 µM
same,IC50,Src-1,5 to 10 µM
same,IC50,Zap-1,1.5 to 5 µM
same,IC50,KDR-1,< 1.5 µM
same,IC50,FGFR1-1,< 1.5 µM
same,IC50,Lck-1,1.5 to 5 µM
same,IC50,InsR-1,1.5 to 5 µM
same,IC50,Lck-2,1.5 to 5 µM
same,IC50,EGFR-1,≥ 10 µM
same,IC50,ErbB2-1,≥ 10 µM
same,IC50,Ret-1,< 1.5 µM
same,IC50,IGFR-1,< 1.5 µM
same,IC50,Akt3-1,≥ 10 µM
same,IC50,Lyn-1,1.5 to 5 µM
same,IC50,ErbB4-1,≥ 10 µM
same,IC50,Itk-1,≥ 10 µM
